Source: article PMC12892976, “Alkylation-based optimization of antifungal FPPS inhibitors yields a potent, broad-spectrum lipophilic zoledronate derivative” (mBio, 2025)
Where two headings read alike, the source gives them in different places.

Columns and labels:
eight fungal species [1] = experiment: checkerboard interaction with azoles, summary across the eight species; format: cell-based; conditions: geometric mean MIC in combination with azoles
Source text: Synergy between lipophilic FPPS inhibitors and azole antifungals was investigated by determining the fractional inhibitory concentration index (FICI) (Fig. 2; Table S1 Fig. S1) ([17]). […]. Derivatives PLA9 and 11, and PDA9, 11, and 12 antagonized azoles in C. albicans, C. neoformans, and C. deuterogattii, yet were largely synergistic in C. glabrata and S. cerevisiae. […].

Trichophyton rubrum [2] = experiment: MIC/MFC broth microdilution (CLSI); conditions: Trichophyton rubrum
Procedure: (§1) Antifungal susceptibility was determined by broth microdilution according to the CLSI guidelines described in M27-Ed4 ([16]). […] MFC was determined by back-plating drug-treated cultures from MIC broths onto SDA plates. The MFC was defined as the lowest concentration from which no colonies could be cultured.

Candida albicans [3] = experiment: checkerboard drug interaction (FICI, MICc);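 as to all read-outs here: antifungal plus FPPS inhibitor combinations on Candida albicans tested by a simplified diagonal checkerboard screen, with FICI calculated under the Loewe additivity model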; format: cell-based; conditions: C. albicans; for INH FD (MIC-MICc fold decrease): fold decrease of inhibitor MIC
Procedure: (§2) Drug interactions between antifungals and FPPS inhibitors were investigated using a simplified checkerboard diagonal screening method ([45]). […] FICIs were determined according to the Loewe additivity model ([17]).

Saccharomyces cerevisiae [4] = experiment: MIC/MFC broth microdilution (CLSI); format: cell-based; conditions: Saccharomyces cerevisiae S288c
Procedure: as §1

Candida glabrata [5] = experiment: MIC/MFC broth microdilution (CLSI); conditions: Nakaseomyces glabratus, CBS138;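 also: broth microdilution following CLSI M27-Ed4, MFC taken as the lowest drug level yielding no growth once MIC wells were subcultured on SDA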
Procedure: as §1

Aspergillus flavus [6] = experiment: MIC/MFC broth microdilution (CLSI); conditions: ATCC204304
Procedure: as §1

Candida albicans [7] = experiment: MIC/MFC broth microdilution (CLSI); format: cell-based; conditions: Candida albicans SC5314
Procedure: as §1

Aspergillus fumigatus [8] = experiment: checkerboard drug interaction (FICI, MICc);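 as to all read-outs here: simplified diagonal checkerboard screen pairing antifungals with FPPS inhibitors against Aspergillus fumigatus, with FICI calculated under the Loewe additivity model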; format: cell-based; conditions: A. fumigatus; for INH FD (MIC-MICc fold decrease): fold decrease of inhibitor MIC
Procedure: as §2

Aspergillus flavus [9] = experiment: checkerboard drug interaction (FICI, MICc);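 also: simplified diagonal checkerboard screen pairing azole antifungals with FPPS inhibitors, FICI calculated under the Loewe additivity model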; format: cell-based; set-up: INH MICc (KET:INH) / INH MICc (FLC:INH): unit not given beside the values; conditions: A. flavus
eight fungal species [10] = experiment: MIC/MFC summary across the eight fungal species of Table 1; format: cell-based
Procedure: The antifungal activity of these compounds was evaluated according to CLSI guidelines ([16]).

Cryptococcus neoformans [11] = experiment: MIC/MFC broth microdilution (CLSI); conditions: Cryptococcus neoformans;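 also: susceptibility testing followed the CLSI M27-Ed4 broth microdilution document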
Procedure: as §1

Aspergillus fumigatus [12] = experiment: MIC/MFC broth microdilution (CLSI); conditions: ATCC204305
Procedure: as §1

Saccharomyces cerevisiae [13] = experiment: checkerboard drug interaction (FICI, MICc);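 as to all read-outs here: simplified diagonal checkerboard screen pairing antifungals with FPPS inhibitors, FICI calculated under the Loewe additivity model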; format: cell-based; set-up: INH MICc / INH MICc (ITR:INH) / INH MICc (KET:INH) / INH MICc (FLC:INH): unit not given beside the values; conditions: S. cerevisiae; for INH FD (MIC-MICc fold decrease): fold decrease of inhibitor MIC
Cryptococcus neoformans [14] = experiment: checkerboard drug interaction (FICI, MICc);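 as to all read-outs here: antifungal plus FPPS inhibitor pairs tested against Cryptococcus neoformans by simplified diagonal checkerboard screening, FICI computed under the Loewe additivity model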; format: cell-based; conditions: C. neoformans; for INH FD (MIC-MICc fold decrease): fold decrease of inhibitor MIC
Procedure: as §2

Candida glabrata [15] = experiment: checkerboard drug interaction (FICI, MICc);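 as to all read-outs here: simplified diagonal checkerboard screen pairing antifungals with FPPS inhibitors, FICI calculated under the Loewe additivity model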; format: cell-based; conditions: C. glabrata; for INH FD (MIC-MICc fold decrease): fold decrease of inhibitor MIC
Procedure: as §2

[16] = tested on: Cryptococcus deuterogattii; experiment: checkerboard drug interaction (FICI, MICc);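 as to all read-outs here: simplified diagonal checkerboard screen pairing antifungal drugs with FPPS inhibitors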; format: cell-based; conditions: C. deuterogattii; for INH FD (MIC-MICc fold decrease): fold decrease of inhibitor MIC
Procedure: as §2

[17] = tested on: Cryptococcus deuterogattii; experiment: MIC/MFC broth microdilution (CLSI); conditions: Cryptococcus deuterogattii;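 also: broth microdilution per CLSI M27-Ed4. MFC is the lowest concentration yielding no colonies when MIC broths are subcultured onto SDA plates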
Procedure: as §1

HEK-293T cells = experiment: MTT reduction cytotoxicity assay; format: cell-based; conditions: Homo sapiens, HEK-293T, 72 h, HEK-293T, MTT, 72 h; read-out: HEK IC50
Trichophyton rubrum [18] = experiment: checkerboard drug interaction (FICI, MICc);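 also: simplified diagonal checkerboard screen pairing azole antifungals with FPPS inhibitors, FICI calculated under the Loewe additivity model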; format: cell-based; conditions: T. rubrum
Procedure: as §2

[19] = FLC:INH combination, MIC of the inhibitor in combination with FLC
[20] = FLC:INH combination, fold decrease of FLC MIC
[21] = ITR:INH combination, MIC of the inhibitor in combination with ITR
[22] = ITR:INH combination, fold decrease of ITR MIC
[23] = KET:INH combination, MIC of the inhibitor in combination with KET
[24] = KET:INH combination, fold decrease of KET MIC
[25] = FLC:INH combination, MIC of FLC in combination with the inhibitor
[26] = ITR:INH combination, MIC of ITR in combination with the inhibitor
[27] = KET:INH combination, MIC of KET in combination with the inhibitor
[28] = Fractional Inhibitory Concentration Index, fluconazole + inhibitor
[29] = Fractional Inhibitory Concentration Index, itraconazole + inhibitor
[30] = Fractional Inhibitory Concentration Index, ketoconazole + inhibitor
[31] = MIC of the inhibitor in combination with fluconazole
[32] = MIC of the inhibitor in combination with itraconazole
[33] = MIC of the inhibitor in combination with ketoconazole
[34] = MIC-MICc fold decrease of fluconazole, negative = increase
[35] = MIC-MICc fold decrease of itraconazole, negative = increase
[36] = MIC-MICc fold decrease of ketoconazole, negative = increase
[37] = MIC-MICc fold decrease of the inhibitor, with fluconazole
[38] = MIC-MICc fold decrease of the inhibitor, with itraconazole
[39] = MIC-MICc fold decrease of the inhibitor, with ketoconazole

CCCCCCCCCCCN1CCC[C@H]1C(=O)N[C@@H](CC(=O)O)C(=O)O [PLA11]
GM fungal MICc (eight fungal species [1]): 55.4
MFC (Trichophyton rubrum [2]): > 128 µg/mL
MIC (Trichophyton rubrum [2]): > 128 µg/mL
FICI (Candida albicans [3]; FLC:INH combination): ≥4
INH MICc (Candida albicans [3]; [19]): 256
FLC FD (MIC-MICc fold decrease) (Candida albicans [3]; [20]): -4
INH FD (MIC-MICc fold decrease) (Candida albicans [3]; FLC:INH combination): 1
FICI (Candida albicans [3]; ITR:INH combination): ≥4
INH MICc (Candida albicans [3]; [21]): 256
ITR FD (MIC-MICc fold decrease) (Candida albicans [3]; [22]): -4
INH FD (MIC-MICc fold decrease) (Candida albicans [3]; ITR:INH combination): 1
FICI (Candida albicans [3]; KET:INH combination): ≥4
INH MICc (Candida albicans [3]; [23]): 128
KET FD (MIC-MICc fold decrease) (Candida albicans [3]; [24]): < -4
INH FD (MIC-MICc fold decrease) (Candida albicans [3]; KET:INH combination): 2
MFC (Saccharomyces cerevisiae [4]): > 128 µg/mL
MIC (Saccharomyces cerevisiae [4]): > 128 µg/mL
MFC (Candida glabrata [5]): > 128 µg/mL
MIC (Candida glabrata [5]): > 128 µg/mL
MFC (Aspergillus flavus [6]): > 128 µg/mL
MIC (Aspergillus flavus [6]): > 128 µg/mL
MFC (Candida albicans [7]): > 128 µg/mL
MIC (Candida albicans [7]): > 128 µg/mL
FICI (Aspergillus fumigatus [8]; FLC:INH combination): 2
FLC MICc (Aspergillus fumigatus [8]; [25]): 128
INH MICc (Aspergillus fumigatus [8]; [19]): 256
FLC FD (MIC-MICc fold decrease) (Aspergillus fumigatus [8]; [20]): 1
INH FD (MIC-MICc fold decrease) (Aspergillus fumigatus [8]; FLC:INH combination): 1
FICI (Aspergillus fumigatus [8]; ITR:INH combination): 0.51
ITR MICc (Aspergillus fumigatus [8]; [26]): 0.063
INH MICc (Aspergillus fumigatus [8]; [21]): 2
ITR FD (MIC-MICc fold decrease) (Aspergillus fumigatus [8]; [22]): 2
INH FD (MIC-MICc fold decrease) (Aspergillus fumigatus [8]; ITR:INH combination): 128
FICI (Aspergillus fumigatus [8]; KET:INH combination): 1.5
KET MICc (Aspergillus fumigatus [8]; [27]): 4
INH MICc (Aspergillus fumigatus [8]; [23]): 128
KET FD (MIC-MICc fold decrease) (Aspergillus fumigatus [8]; [24]): 1
INH FD (MIC-MICc fold decrease) (Aspergillus fumigatus [8]; KET:INH combination): 2
FICI (FLC:INH) (Aspergillus flavus [9]; [28]): 0.75
FICI (ITR:INH) (Aspergillus flavus [9]; [29]): 0.52
FICI (KET:INH) (Aspergillus flavus [9]; [30]): 2
INH MICc (FLC:INH) (Aspergillus flavus [9]; [31]): 64
INH MICc (ITR:INH) (Aspergillus flavus [9]; [32]): 4
INH MICc (KET:INH) (Aspergillus flavus [9]; [33]): 256
FLC FD (FLC:INH) (Aspergillus flavus [9]; [34]): 2
ITR FD (ITR:INH) (Aspergillus flavus [9]; [35]): 2
KET FD (KET:INH) (Aspergillus flavus [9]; [36]): 1
INH FD (FLC:INH) (Aspergillus flavus [9]; [37]): 4
INH FD (ITR:INH) (Aspergillus flavus [9]; [38]): 64
INH FD (KET:INH) (Aspergillus flavus [9]; [39]): 1
MFC (eight fungal species [10]; across eight species, read-out: Geometric mean MFC): > 128 µg/mL
MIC (eight fungal species [10]; geometric mean across eight species, read-out: GM fungal MIC): > 128 µg/mL
MIC (eight fungal species [10]; read-out: Geometric mean MIC): > 128 µg/mL
MFC (Cryptococcus neoformans [11]): > 128 µg/mL
MIC (Cryptococcus neoformans [11]): > 128 µg/mL
MFC (Aspergillus fumigatus [12]): > 128 µg/mL
MIC (Aspergillus fumigatus [12]): > 128 µg/mL
FICI (Saccharomyces cerevisiae [13]; FLC:INH combination): 0.31
FLC MICc (Saccharomyces cerevisiae [13]; [25]): 1
INH MICc (Saccharomyces cerevisiae [13]; [19]): 16
FLC FD (MIC-MICc fold decrease) (Saccharomyces cerevisiae [13]; [20]): 4
INH FD (MIC-MICc fold decrease) (Saccharomyces cerevisiae [13]; FLC:INH combination): 16
FICI (Saccharomyces cerevisiae [13]; ITR:INH combination): 0.38
ITR MICc (Saccharomyces cerevisiae [13]; [26]): 0.063
INH MICc (Saccharomyces cerevisiae [13]; [21]): 32
ITR FD (MIC-MICc fold decrease) (Saccharomyces cerevisiae [13]; [22]): 4
INH FD (MIC-MICc fold decrease) (Saccharomyces cerevisiae [13]; ITR:INH combination): 8
FICI (Saccharomyces cerevisiae [13]; KET:INH combination): 0.28
KET MICc (Saccharomyces cerevisiae [13]; [27]): 0.5
INH MICc (Saccharomyces cerevisiae [13]; [23]): 8
KET FD (MIC-MICc fold decrease) (Saccharomyces cerevisiae [13]; [24]): 4
INH FD (MIC-MICc fold decrease) (Saccharomyces cerevisiae [13]; KET:INH combination): 32
FICI (Cryptococcus neoformans [14]; FLC:INH combination): ≥4
INH MICc (Cryptococcus neoformans [14]; [19]): 256
FLC FD (MIC-MICc fold decrease) (Cryptococcus neoformans [14]; [20]): < -4
INH FD (MIC-MICc fold decrease) (Cryptococcus neoformans [14]; FLC:INH combination): 1
FICI (Cryptococcus neoformans [14]; ITR:INH combination): ≥4
INH MICc (Cryptococcus neoformans [14]; [21]): 256
ITR FD (MIC-MICc fold decrease) (Cryptococcus neoformans [14]; [22]): < -4
INH FD (MIC-MICc fold decrease) (Cryptococcus neoformans [14]; ITR:INH combination): 1
FICI (Cryptococcus neoformans [14]; KET:INH combination): ≥4
INH MICc (Cryptococcus neoformans [14]; [23]): 128
KET FD (MIC-MICc fold decrease) (Cryptococcus neoformans [14]; [24]): -4
INH FD (MIC-MICc fold decrease) (Cryptococcus neoformans [14]; KET:INH combination): 2
FICI (Candida glabrata [15]; FLC:INH combination): 0.28
INH MICc (Candida glabrata [15]; [19]): 4
FLC FD (MIC-MICc fold decrease) (Candida glabrata [15]; [20]): 4
INH FD (MIC-MICc fold decrease) (Candida glabrata [15]; FLC:INH combination): 64
FICI (Candida glabrata [15]; ITR:INH combination): 0.27
INH MICc (Candida glabrata [15]; [21]): 2
ITR FD (MIC-MICc fold decrease) (Candida glabrata [15]; [22]): 4
INH FD (MIC-MICc fold decrease) (Candida glabrata [15]; ITR:INH combination): 128
FICI (Candida glabrata [15]; KET:INH combination): 0.27
INH MICc (Candida glabrata [15]; [23]): 2
KET FD (MIC-MICc fold decrease) (Candida glabrata [15]; [24]): 4
INH FD (MIC-MICc fold decrease) (Candida glabrata [15]; KET:INH combination): 128
FICI ([16]; FLC:INH combination): ≥4
INH MICc [16, 19]: 256
FLC FD (MIC-MICc fold decrease) [16, 20]: -4
INH FD (MIC-MICc fold decrease) ([16]; FLC:INH combination): 1
FICI ([16]; ITR:INH combination): ≥4
INH MICc [16, 21]: 128
ITR FD (MIC-MICc fold decrease) [16, 22]: -4
INH FD (MIC-MICc fold decrease) ([16]; ITR:INH combination): 2
FICI ([16]; KET:INH combination): 1
INH MICc [16, 23]: 128
KET FD (MIC-MICc fold decrease) [16, 24]: 2
INH FD (MIC-MICc fold decrease) ([16]; KET:INH combination): 2
MFC [17]: > 128 µg/mL
MIC [17]: > 128 µg/mL
IC50 (HEK-293T cells): > 256 µg/mL
FICI (FLC:INH) (Trichophyton rubrum [18]; [28]): 3
FICI (ITR:INH) (Trichophyton rubrum [18]; [29]): 2
FICI (KET:INH) (Trichophyton rubrum [18]; [30]): 1.5
INH MICc (FLC:INH) (Trichophyton rubrum [18]; [31]): 256
INH MICc (ITR:INH) (Trichophyton rubrum [18]; [32]): 256
INH MICc (KET:INH) (Trichophyton rubrum [18]; [33]): 128
FLC FD (FLC:INH) (Trichophyton rubrum [18]; [34]): -2
ITR FD (ITR:INH) (Trichophyton rubrum [18]; [35]): 1
KET FD (KET:INH) (Trichophyton rubrum [18]; [36]): 1
INH FD (FLC:INH) (Trichophyton rubrum [18]; [37]): 1
INH FD (ITR:INH) (Trichophyton rubrum [18]; [38]): 1
INH FD (KET:INH) (Trichophyton rubrum [18]; [39]): 2
